Results published in the supplement of paper PMC11061612.

Columns and labels:
Experiment in all cases: Bliss excess, mean over the matrix (fraction); higher = more synergy
A204 (Rhabdomyosarcoma) = test system: A204 (Rhabdomyosarcoma)
How it was run: (§1)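 Bliss excess equals the observed combination effect minus the expected value EA + EB − EA·EB, where EA and EB are the effects of each agent alone. Combination Emax is the second-highest inhibition within the matrix. Inhibition was scaled from CellTiter-Glo 2.0 luminescence, with 0 set by vehicle wells and 1 by blank wells, after 72 hours of two-drug dosing of cells plated in 1536-well plates.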

[1] = test system: A2780 (Ovarian Carcinoma)
How it was run: as §1

[2] = test system: CA46 (Burkitt's Lymphoma)
How it was run: as §1

[3] = test system: ESO26 (Esophageal Adenocarcinoma)
How it was run: as §1

[4] = test system: G-402 (Other Solid Carcinomas)
How it was run: as §1

[5] = test system: Jurkat (T-Lymphoblastic Leukemia)
How it was run: as §1

KP-N-YN (Neuroblastoma) = test system: KP-N-YN (Neuroblastoma)
How it was run: as §1

[6] = test system: KYSE-140 (Esophageal Squamous Cell Carcinoma)
How it was run: as §1

[7] = test system: LS-411N (Colorectal Carcinoma)
How it was run: as §1

[8] = test system: LU-165 (Small Cell Lung Carcinoma)
How it was run: as §1

[9] = test system: MDA-MB-436 (Breast Carcinoma)
How it was run: as §1

[10] = test system: MHH-ES-1 (Ewing's Sarcoma)
How it was run: as §1

[11] = test system: NCI-H1703 (Squamous Cell Lung Carcinoma)
How it was run: as §1

[12] = test system: NCI-H2228 (Lung Adenocarcinoma)
How it was run: as §1

[13] = test system: NCI-H441 (Lung Adenocarcinoma)
How it was run: as §1

[14] = test system: OACp4C (Esophageal Adenocarcinoma)
How it was run: as §1

RH-41 (Rhabdomyosarcoma) = test system: RH-41 (Rhabdomyosarcoma)
How it was run: as §1

[15] = test system: UACC-812 (Breast Carcinoma)
How it was run: as §1

WM1552C (Melanoma) = test system: WM1552C (Melanoma)
How it was run: as §1

[16] = test system: huH-1 (Hepatocellular Carcinoma)
How it was run: as §1

| SMILES | Bliss excess (A204 (Rhabdomyosarcoma)) | Bliss excess [1] | Bliss excess [2] | Bliss excess [3] | Bliss excess [4] | Bliss excess [5] | Bliss excess (KP-N-YN (Neuroblastoma)) | Bliss excess [6] | Bliss excess [7] | Bliss excess [8] | Bliss excess [9] | Bliss excess [10] | Bliss excess [11] | Bliss excess [12] | Bliss excess [13] | Bliss excess [14] | Bliss excess (RH-41 (Rhabdomyosarcoma)) | Bliss excess [15] | Bliss excess (WM1552C (Melanoma)) | Bliss excess [16] |
| --- | --- | --- | --- | --- | --- | --- | --- | --- | --- | --- | --- | --- | --- | --- | --- | --- | --- | --- | --- | --- |
| CN(C)CCCOc1ccc(-c2ccc3ncc4c(c3c2)n(C2CCOCC2)c(=O)n4C)cn1 [AZD0156] + C=CCn1c(=O)c2cnc(Nc3ccc(N4CCN(C)CC4)cc3)nc2n1-c1cccc(C(C)(C)O)n1 [AZD1775] (first compound max 1 µM, partner max 1 µM) | -0.0545 | -0.0284 | -0.0283 | -0.0322 | -0.0501 | 0.0794 | -0.0161 | -0.0031 | -0.0042 | -0.118 | -0.0623 | -0.0402 | -0.051 | -0.0934 | -0.0963 | -0.0245 | -0.0175 | -0.0561 | 0.0116 | 0.0041 |
| CN(C)CCCOc1ccc(-c2ccc3ncc4c(c3c2)n(C2CCOCC2)c(=O)n4C)cn1 [AZD0156] + CCN(CCO)CCCOc1ccc2c(Nc3cc(CC(=O)Nc4cccc(F)c4)[nH]n3)ncnc2c1 [AZD2811] (first compound max 1 µM, 7x7, partner max 1 µM) | -0.0335 | 0.0336 | 0.0059 | -0.037 | -0.0111 | 0.0543 | 0.0037 | 0.025 | -0.0168 | -0.04 | -0.0539 | 0.0376 | 0.0059 | -0.0223 | -0.0776 | 0.0091 | 0.0369 | -0.0171 | -0.0135 | 0.0049 |
| CN(C)CCCOc1ccc(-c2ccc3ncc4c(c3c2)n(C2CCOCC2)c(=O)n4C)cn1 [AZD0156] + C[C@@H]1COCCN1C2=NC(=NC(=C2)C3(CC3)[S@](=N)(=O)C)C4=C5C=CNC5=NC=C4 [AZD6738] (first compound max 1 µM, 7x7, partner max 10 µM) | -0.038 | -0.0114 | 0.0799 | 0.0158 | -0.0306 | 0.1 | 0.0249 | 0.0481 | -0.0145 | -0.0515 | -0.0396 | 0.0361 | -0.0341 | -0.024 | -0.0718 | 0.0169 | 0.0593 | -0.0108 | 0.0189 | 0.0019 |
| CN(C)CCCOc1ccc(-c2ccc3ncc4c(c3c2)n(C2CCOCC2)c(=O)n4C)cn1 [AZD0156] + O=C(c1cc(Cc2n[nH]c(=O)c3ccccc23)ccc1F)N1CCN(C(=O)C2CC2)CC1 [Olaparib] (first compound max 3 µM, partner max 3 µM) | -0.0255 | 0.198 | 0.0156 | -0.0039 | 0.0571 | 0.174 |  | -0.0069 | 0.0922 | 0.0093 | -0.0232 | 0.148 | 0.0821 | 0.0272 | -0.0003 | -0.0005 | 0.0128 | -0.113 | 0.0213 | -0.0726 |
| C=CCn1c(=O)c2cnc(Nc3ccc(N4CCN(C)CC4)cc3)nc2n1-c1cccc(C(C)(C)O)n1 [AZD1775] + C1CN(CCC1(C(=O)N[C@@H](CCO)C2=CC=C(C=C2)Cl)N)C3=NC=NC4=C3C=CN4 [Capivasertib] (first compound max 3 µM, partner max 3 µM) | -0.0131 | 0.0361 | -0.0101 | -0.0424 | -0.0346 | 0.185 |  | -0.0859 | -0.0551 | -0.117 | 0.0064 | -0.034 | 0.0131 | -0.0181 | -0.0427 | 0.0005 | -0.0387 | -0.0007 | 0.0306 | -0.0242 |
| C=CCn1c(=O)c2cnc(Nc3ccc(N4CCN(C)CC4)cc3)nc2n1-c1cccc(C(C)(C)O)n1 [AZD1775] + C[C@@H]1COCCN1C2=NC(=NC(=C2)C3(CC3)[S@](=N)(=O)C)C4=C5C=CNC5=NC=C4 [AZD6738] (first compound max 1 µM, partner max 10 µM) | -0.0421 | 0.0221 | 0.0061 | 0.0102 | -0.0458 | 0.038 | -0.005 | 0.0259 | 0.0732 | -0.0127 | 0.0143 | -0.0135 | 0.0263 | -0.0399 | -0.0834 | -0.028 | 0.0493 | 0.0176 | 0.0011 | 0.019 |
| C=CCn1c(=O)c2cnc(Nc3ccc(N4CCN(C)CC4)cc3)nc2n1-c1cccc(C(C)(C)O)n1 [AZD1775] + O=C(c1cc(Cc2n[nH]c(=O)c3ccccc23)ccc1F)N1CCN(C(=O)C2CC2)CC1 [Olaparib] (first compound max 1 µM, partner max 10 µM) | -0.0881 | -0.0256 | -0.0612 | -0.0518 | -0.0761 | -0.0088 | -0.144 | -0.0418 | -0.0608 | -0.103 | -0.0077 | -0.0196 | -0.0267 | 0.0107 | -0.0662 | -0.055 | -0.0484 | -0.023 | -0.0941 | -0.0118 |
| CCN(CCO)CCCOc1ccc2c(Nc3cc(CC(=O)Nc4cccc(F)c4)[nH]n3)ncnc2c1 [AZD2811] + C=CCn1c(=O)c2cnc(Nc3ccc(N4CCN(C)CC4)cc3)nc2n1-c1cccc(C(C)(C)O)n1 [AZD1775] (first compound max 1 µM, partner max 1 µM) | 0.0168 | 0.088 | 0.0165 | -0.0247 | -0.0106 | 0.0809 | -0.027 | -0.0155 | -0.0174 | -0.0603 | -0.0158 | 0.0089 | -0.0453 | 0.0112 | -0.0518 | -0.0436 | 0.0118 | -0.0352 | 0.0035 | -0.0176 |
| CCN(CCO)CCCOc1ccc2c(Nc3cc(CC(=O)Nc4cccc(F)c4)[nH]n3)ncnc2c1 [AZD2811] + C[C@@H]1COCCN1C2=NC(=NC(=C2)C3(CC3)[S@](=N)(=O)C)C4=C5C=CNC5=NC=C4 [AZD6738] (first compound max 1 µM, 7x7, partner max 10 µM) | -0.0492 | -0.0619 | -0.0698 | -0.0427 | -0.0703 | 0.0336 | -0.0751 | 0.0008 | -0.0366 | -0.0637 | -0.0469 | -0.0145 | -0.0148 | -0.0184 | -0.0324 | 0 | -0.0477 | -0.0303 | -0.0468 | -0.0294 |
| CCN(CCO)CCCOc1ccc2c(Nc3cc(CC(=O)Nc4cccc(F)c4)[nH]n3)ncnc2c1 [AZD2811] + O=C(c1cc(Cc2n[nH]c(=O)c3ccccc23)ccc1F)N1CCN(C(=O)C2CC2)CC1 [Olaparib] (first compound max 1 µM, 7x7, partner max 10 µM) | 0.0034 | 0.0453 | 0.02 | -0.0311 | -0.0281 | 0.0634 | 0.0058 | 0.0429 | -0.0082 | -0.0454 | -0.0533 | -0.0214 | 0.0062 | -0.021 | -0.0417 | -0.0304 | 0.0053 | 0.0076 | -0.027 | -0.0014 |
| CN(CCO)CC[C@H](CSc1ccccc1)Nc1ccc(S(=O)(=O)NC(=O)c2ccc(N3CCC([C@@H](O)c4ccccc4-c4ccc(Cl)cc4)CC3)cc2)cc1S(=O)(=O)C(F)(F)F [AZD4320] + CN(C)CCCOc1ccc(-c2ccc3ncc4c(c3c2)n(C2CCOCC2)c(=O)n4C)cn1 [AZD0156] (first compound max 1 µM, 7x7, partner max 1 µM) | -0.0468 | -0.0519 | 0.0092 | -0.025 | -0.0458 | -0.0012 | -0.0064 | -0.0257 | -0.0009 | -0.025 | -0.0496 | -0.0062 | -0.0127 | -0.0225 | -0.022 | -0.0257 | -0.0265 | -0.0283 | -0.0282 | -0.0419 |
| COc1nnc2ccc(N3CCC(c4ccc(OCCN5CCN(C)C(=O)[C@H]5C)cc4)CC3)nn12 [AZD5153] + C=CCn1c(=O)c2cnc(Nc3ccc(N4CCN(C)CC4)cc3)nc2n1-c1cccc(C(C)(C)O)n1 [AZD1775] (first compound max 1 µM, partner max 1 µM) | -0.0887 | -0.0523 | -0.0572 | -0.0501 | -0.0226 | -0.0038 | -0.135 | -0.0161 | -0.0334 | 0.0026 | -0.0783 | -0.0662 | 0.0052 | -0.0784 | -0.0322 | -0.0295 | 0.0035 | -0.0066 | -0.0776 | 0.024 |
| COc1nnc2ccc(N3CCC(c4ccc(OCCN5CCN(C)C(=O)[C@H]5C)cc4)CC3)nn12 [AZD5153] + CC1(C)CCC(CN2CCN(c3ccc(C(=O)NS(=O)(=O)c4ccc(NCC5CCOCC5)c([N+](=O)[O-])c4)c(Oc4cnc5[nH]ccc5c4)c3)CC2)=C(c2ccc(Cl)cc2)C1 [Venetoclax] (first compound max 1 µM, 7x7, partner max 1 µM) | -0.0383 | -0.0689 | -0.052 | -0.0776 | -0.0478 | -0.0444 | -0.0809 | -0.0597 | -0.0573 | -0.0522 | -0.0572 | -0.046 | -0.0404 | -0.0523 | -0.0137 | -0.0242 | 0.0374 | -0.0947 | -0.0691 | -0.0962 |
| COc1nnc2ccc(N3CCC(c4ccc(OCCN5CCN(C)C(=O)[C@H]5C)cc4)CC3)nn12 [AZD5153] + CCN(CCO)CCCOc1ccc2c(Nc3cc(CC(=O)Nc4cccc(F)c4)[nH]n3)ncnc2c1 [AZD2811] (first compound max 1 µM, 7x7, partner max 1 µM) | -0.0849 | -0.0295 | -0.0088 | 0.0002 | -0.0728 | 0.0305 | -0.0355 | -0.0087 | -0.0233 | -0.06 | -0.0214 | -0.0345 | -0.038 | -0.0285 | -0.0236 | -0.062 | 0.021 | -0.0742 | -0.0615 | 0.0201 |
| CC(=O)c1c(C)c2cnc(Nc3ccc(N4CCNCC4)cn3)nc2n(C2CCCC2)c1=O [Palbociclib] + Cn1cnc2c(F)c(Nc3ccc(Br)cc3Cl)c(C(=O)NOCCO)cc21 [Selumetinib] (first compound max 10 µM, 7x7, partner max 10 µM) | -0.0261 | 0.0327 | -0.0504 | 0.0104 | 0.0399 | -0.0297 | -0.0253 | -0.0387 | 0.0131 | -0.0518 | 0.0157 | -0.0061 | 0.0303 | -0.0822 | 0.0506 | -0.0359 | -0.0076 |  | -0.0078 | -0.0455 |
